Reference: patent publication US20080249077A1, “17.Beta.-Fluoromethoxycarbonyl-Androst-4-En-3-One Compounds With a 17.Alpha.-Carbonate Sustituent” (priority 2005, published 2008)

Key:
Format in all cases: cell-based
glucocorticoid receptor [1] = biological target: T1, glucocorticoid receptor (Homo sapiens, UniProt P04150); test: Assay for transactivation activity of the glucocorticoid agonists (MMTV-LTR renilla luciferase reporter in A549 cells); conditions: compound 6 hour at 37° C., read-out: maximal response relative to Dexamethasone (100%) (transactivation)
T1 construct: A549 cells stably transfected with a reporter gene; endogenous in cells; host or cells: A549 cells
T1 sequence (P04150 1-777): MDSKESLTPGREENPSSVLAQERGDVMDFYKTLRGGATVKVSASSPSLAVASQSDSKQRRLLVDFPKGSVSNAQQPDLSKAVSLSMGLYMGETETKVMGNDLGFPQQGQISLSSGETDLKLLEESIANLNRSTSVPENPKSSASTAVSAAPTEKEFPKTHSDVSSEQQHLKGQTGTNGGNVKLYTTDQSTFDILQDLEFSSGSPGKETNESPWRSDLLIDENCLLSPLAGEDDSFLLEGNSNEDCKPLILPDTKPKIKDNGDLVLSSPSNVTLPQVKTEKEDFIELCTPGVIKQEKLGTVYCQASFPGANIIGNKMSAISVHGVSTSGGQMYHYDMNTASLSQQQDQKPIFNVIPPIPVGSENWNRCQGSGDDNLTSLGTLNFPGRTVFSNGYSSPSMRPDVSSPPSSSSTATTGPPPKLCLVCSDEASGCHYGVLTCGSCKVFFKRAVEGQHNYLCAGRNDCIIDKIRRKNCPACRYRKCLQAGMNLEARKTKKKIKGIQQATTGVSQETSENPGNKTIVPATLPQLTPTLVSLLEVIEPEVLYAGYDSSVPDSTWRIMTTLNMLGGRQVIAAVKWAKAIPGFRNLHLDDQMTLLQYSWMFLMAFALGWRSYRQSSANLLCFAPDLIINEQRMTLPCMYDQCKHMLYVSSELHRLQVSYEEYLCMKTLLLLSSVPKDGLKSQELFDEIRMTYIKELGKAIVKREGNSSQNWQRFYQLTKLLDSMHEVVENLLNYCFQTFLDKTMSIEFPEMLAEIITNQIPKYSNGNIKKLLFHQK
Description: Assay for Transactivation Activity of the Glucocorticoid Agonists
The functional assay based on that described by R. J. H. Austin et al., Eur Resp J. (2002), 20, 1386-1392 measures the ability of compounds to directly transactivate gene expression. A549 cells stably transfected with a reporter gene containing the glucocorticoid responsive region of the mouse mammary tumour virus long terminal repeat (MMTV-LTR) coupled to renilla luciferase were treated with test compounds at appropriate doses for 6 hour at 37° C. The amount of luciferase activity present within the cells is then determined by measuring the light emitted following incubation with a suitable substrate. Dose response curves were constructed from which EC50 values were estimated and from which maximal responses are calculated relative to Dexamethasone (100%).

glucocorticoid receptor [2] = biological target: T1, glucocorticoid receptor; test: Assay for transrepression activity of the glucocorticoid agonists (NF-κB responsive ELAM promoter-sPAP reporter, TNF-stimulated A549 cells); conditions: compound 1 hour at 37° C., then TNF 10 ng/ml for 16 hours, read-out: pIC50 (transrepression) (converted)
Description: Assay for Transrepression Activity of the Glucocorticoid Agonists
A549 cells stably transfected with a reporter gene containing the NF-κB responsive elements from the ELAM gene promoter coupled to sPAP (secreted alkaline phosphatase) are treated with test compounds at appropriate doses for 1 hour at 37° C. The cells are then stimulated with tumour necrosis factor (TNF, 10 ng/ml) for 16 hours, at which time the amount of alkaline phosphatase produced is measured by a standard colourimetric assay. Dose response curves were constructed from which EC50 values were estimated.

Progesterone Receptor = biological target: T2, Progesterone Receptor (Homo sapiens, UniProt P06401); test: Assay for progesterone receptor activity (CV-1 cells transduced with PRb-BacMam and MMTV-BacMam, Steady Glo); conditions: 24 h, read-out: pEC50 (progesterone receptor) (converted)
T2 construct: expressed in transfected cells; host or cells: CV-1 cells transduced with PRb-BacMam
T2 sequence (P06401 1-933): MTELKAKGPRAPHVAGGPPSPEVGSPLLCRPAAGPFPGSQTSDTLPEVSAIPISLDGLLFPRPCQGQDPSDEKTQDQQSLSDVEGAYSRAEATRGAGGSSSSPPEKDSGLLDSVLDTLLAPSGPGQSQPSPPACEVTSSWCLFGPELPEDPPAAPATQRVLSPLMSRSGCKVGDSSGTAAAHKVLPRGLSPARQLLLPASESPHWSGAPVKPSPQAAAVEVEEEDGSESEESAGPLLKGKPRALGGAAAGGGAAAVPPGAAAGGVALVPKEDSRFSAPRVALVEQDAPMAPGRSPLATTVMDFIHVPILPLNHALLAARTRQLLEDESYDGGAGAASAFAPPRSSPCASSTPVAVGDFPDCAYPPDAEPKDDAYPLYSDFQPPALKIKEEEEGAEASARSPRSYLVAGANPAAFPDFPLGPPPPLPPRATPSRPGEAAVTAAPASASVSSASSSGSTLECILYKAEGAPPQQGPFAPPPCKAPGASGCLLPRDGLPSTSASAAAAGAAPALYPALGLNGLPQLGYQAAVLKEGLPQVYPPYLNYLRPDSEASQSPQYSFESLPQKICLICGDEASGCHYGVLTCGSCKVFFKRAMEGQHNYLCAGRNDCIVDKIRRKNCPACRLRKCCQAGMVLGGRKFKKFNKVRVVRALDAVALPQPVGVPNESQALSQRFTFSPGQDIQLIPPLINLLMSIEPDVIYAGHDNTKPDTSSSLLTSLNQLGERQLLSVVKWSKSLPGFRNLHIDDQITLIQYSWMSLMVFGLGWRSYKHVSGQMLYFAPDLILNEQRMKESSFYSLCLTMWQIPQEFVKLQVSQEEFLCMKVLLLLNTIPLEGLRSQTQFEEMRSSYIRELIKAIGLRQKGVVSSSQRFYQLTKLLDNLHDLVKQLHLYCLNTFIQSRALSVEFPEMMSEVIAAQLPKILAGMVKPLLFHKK
Description: Assay for Progesterone Receptor Activity
Cells were diluted in DMEM containing 10% Hyclone, 2 mM […] and 1% Pen/Strep at 140 cells/μl and transduced with 10% PRb-BacMam and 10% MMTV-BacMam. […] of suspension cells were dispensed to each well of white Nunc 384-well plates, containing compounds at the required concentration. After 24 h 10 μl of Steady Glo were added to each well of the plates. Plates were incubated in the dark for 10 min before reading them on a Viewlux reader. Dose response curves were constructed from which pEC50 values were estimated.

| Structure (SMILES) | Emax (glucocorticoid receptor [1]) [%] | IC50 (glucocorticoid receptor [2]) [µM] | EC50 (Progesterone Receptor) [µM] |
| --- | --- | --- | --- |
| C[C@@H]1C[C@H]2[C@@H]3C[C@H](F)C4=CC(=O)C=C[C@]4(C)[C@@]3(F)[C@@H](O)C[C@]2(C)[C@@]1(OC(=O)O[C@@H]1[C@@H]2CC[C@@H](C2)C1(C)C)C(=O)OCF [Example 30, Fluoromethyl(6α,11β,16α,17α)-17-[({[(1R,2R,4S)-3,3-dimethylbicyclo[2.2.1]hept-2-yl]oxy}carbonyl)oxy]-6,9-difluoro-11-hydroxy-16-methyl-3-oxoandrosta-1,4-diene-17-carboxylate] | < 25 | < 0.0001 | > 0.01 |
| C[C@@H]1[C@H]2C[C@@H](C[C@H]1OC(=O)O[C@]1(C(=O)OCF)[C@H](C)C[C@H]3[C@@H]4C[C@H](F)C5=CC(=O)C=C[C@]5(C)[C@@]4(F)[C@@H](O)C[C@@]31C)C2(C)C [Example 34, Fluoromethyl(6α,11β,16α,17α)-6,9-difluoro-11-hydroxy-16-methyl-3-oxo-17-[({[(1R,2R,3R,5S)-2,6,6-trimethylbicyclo[3.1.1]hept-3-yl]oxy}carbonyl)oxy]androsta-1,4-diene-17-carboxylate] | < 25 | – | > 0.01 |
| C[C@@H]1C[C@H]2[C@@H]3C[C@H](F)C4=CC(=O)C=C[C@]4(C)[C@@]3(F)[C@@H](O)C[C@]2(C)[C@@]1(OC(=O)OC1CCCCCC1)C(=O)OCF [Example 14, Fluoromethyl(6α,11β,16α,17α)-17-{[(cycloheptyloxy)carbonyl]oxy}-6,9-difluoro-11-hydroxy-16-methyl-3-oxoandrosta-1,4-diene-17-carboxylate] | < 25 | – | > 0.01 |
| CCC(C)(C)OC(=O)O[C@]1(C(=O)OCF)[C@H](C)C[C@H]2[C@@H]3C[C@H](F)C4=CC(=O)C=C[C@]4(C)[C@@]3(F)[C@@H](O)C[C@@]21C [Example 2, Fluoromethyl(6α,11β,16α,17α)-17-({[(1,1-dimethylpropyl)oxy]carbonyl}oxy)-6,9-difluoro-11-hydroxy-16-methyl-3-oxoandrosta-1,4-diene-17-carboxylate] | – | < 0.0001 | > 0.01 |
| CCC(OC(=O)O[C@]1(C(=O)OCF)[C@H](C)C[C@H]2[C@@H]3C[C@H](F)C4=CC(=O)C=C[C@]4(C)[C@@]3(F)[C@@H](O)C[C@@]21C)C(C)(C)C (stereo partly drawn) [Example 38, Fluoromethyl(6α,11β,16α,17α)-17-({[(1-ethyl-2,2-dimethylpropyl)oxy]carbonyl}oxy)-6,9-difluoro-11-hydroxy-16-methyl-3-oxoandrosta-1,4-diene-17-carboxylate] | < 25 | – | > 0.01 |
| CC(C)[C@H]1CC[C@H](C)C[C@@H]1OC(=O)O[C@]1(C(=O)OCF)[C@H](C)C[C@H]2[C@@H]3C[C@H](F)C4=CC(=O)C=C[C@]4(C)[C@@]3(F)[C@@H](O)C[C@@]21C [Example 32, Fluoromethyl(6α,11β,16α,17α)-6,9-difluoro-11-hydroxy-16-methyl-17-[({[(1 S,2R,5S)-5-methyl-2-(1-methylethyl)cyclohexyl]oxy}carbonyl)oxy]-3-oxoandrosta-1,4-diene-17-carboxylate] | < 25 | – | > 0.01 |
| CCC(OC(=O)O[C@]1(C(=O)OCF)[C@H](C)C[C@H]2[C@@H]3C[C@H](F)C4=CC(=O)C=C[C@]4(C)[C@@]3(F)[C@@H](O)C[C@@]21C)C(C)C (stereo partly drawn) [Example 8, Fluoromethyl(6α,11β,16α,17α)-17-({[(1-ethyl-2-methylpropyl)oxy]carbonyl}oxy)-6,9-difluoro-11-hydroxy-16-methyl-3-oxoandrosta-1,4-diene-17-carboxylate] | < 25 | < 0.0001 | > 0.01 |
